The values below come from patent US6365605B1, “Substituted hydrochromenopyrroles” (Les Laboratoires Servier, priority 1997, dated 2002).

The experiment concerns the target T1, D3 receptors (expressed in CHO cells) (Homo sapiens, UniProt P35462).
T1 construct: expressed in transfected cells
The experiment is described as follows: In vitro measurement of the affinity to D2 and D3 receptors, [125I]-iodosulpiride radioligand, membrane preparations. Conditions: difference of pKi, D3 vs D2 receptors expressed in CHO cells. It counts as binding. As for the experimental part:
The affinity of the compounds of the invention to D2 and D3 receptors (expressed independently and in a stable manner in CHO cells) was determined with membrane preparations using [^125I]-iodosulpiride as radioligand (Sokoloff et al., quoted reference). The results are expressed as pKi.

T1 sequence (P35462 whole entry): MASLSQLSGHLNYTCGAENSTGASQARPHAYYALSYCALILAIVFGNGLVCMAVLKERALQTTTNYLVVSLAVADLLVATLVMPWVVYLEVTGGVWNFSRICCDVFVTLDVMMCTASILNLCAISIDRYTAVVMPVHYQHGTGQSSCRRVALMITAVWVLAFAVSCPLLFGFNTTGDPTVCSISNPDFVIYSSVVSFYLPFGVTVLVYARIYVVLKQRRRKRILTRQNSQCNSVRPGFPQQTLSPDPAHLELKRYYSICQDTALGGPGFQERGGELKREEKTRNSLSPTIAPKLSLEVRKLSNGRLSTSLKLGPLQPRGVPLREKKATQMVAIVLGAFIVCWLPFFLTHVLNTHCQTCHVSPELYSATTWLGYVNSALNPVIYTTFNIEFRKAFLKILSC

Regarding `CC(=O)Nc1ccc(CCN2CC3COc4ccc(C#N)cc4C3C2)cc1.Cl` (stereo not shown) [Example 4, (3aα,9bβ)-2-[2-(4-Acetylaminophenyl)ethyl]-8-cyano-1,2,3,3a,4,9b-hexahydrochromeno[3,4-c]pyrrole hydrochloride], the “selectivity for D3 receptors compared with D2 receptors” value was > 1.5 log.
